Test results reported in US20250270213A1, “PI3Ka INHIBITORS” (Synnovation Therapeutics, Inc., priority 2022, published 2025).
pIC50: −log10 of the molar value.

tested on: T47D (PIK3CA H1047R) cells; assay: pS473 AKT assay with 2.5% FBS, T47D cells; assay type: cell-based; settings: Homo sapiens, pSer473 AKT, DMEM with 2.5% FBS, 2 h treatment, read-out: T47D_IC50
How it was run: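 T47D (PIK3CA H1047R) cells were switched to DMEM with 2.5% FBS and exposed to compounds for 2 h. After paraformaldehyde fixation, pSer473 AKT was detected by in-cell ELISA (rabbit primary, HRP anti-rabbit secondary, chemiluminescence); IC50 values were fitted from the concentration series.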

SMILES	pIC50
Cc1cc(C(C)Nc2ccc(Cl)nc2-c2cnn(C)c2)c2c(c1)c(=O)n(C)c1c2cnn1C1CCN(CC(F)F)C1 (centres unmarked) [Compound 142, 9-(1-((6-Chloro-2-(1-methyl-1H-pyrazol-4-yl)pyridin-3-yl)amino)ethyl)-3-(1-(2,2-difluoroethyl)pyrrolidin-3-yl)-4,7-dimethyl-3,4-dihydro-5H-pyrazolo[3,4-c]isoquinolin-5-one]	> 6.00
[2H]C([2H])([2H])n1c(=O)c2cc(C)cc(C(C)Nc3ccc(Cl)nc3-c3cnn(C)c3)c2c2cnn(C3CCN(CC(F)F)C3)c21 (centres unmarked) [Compound 143, 9-(1-((6-chloro-2-(1-methyl-1H-pyrazol-4-yl)pyridin-3-yl)amino)ethyl)-3-(1-(2,2-difluoroethyl)pyrrolidin-3-yl)-7-methyl-4-(methyl-d3)-3,4-dihydro-5H-pyrazolo[3,4-c]isoquinolin-5-one]	> 6.00
[2H]C([2H])([2H])n1c(=O)c2cc(C)cc(C(C)Nc3ccc(Cl)nc3-c3cnn(C)c3)c2c2cnn(C3CCN(CC#N)C3)c21 (centres unmarked) [Compound 144, 2-(3-(9-(1-((6-chloro-2-(1-methyl-1H-pyrazol-4-yl)pyridin-3-yl)amino)ethyl)-7-methyl-4-(methyl-d3)-5-oxo-4,5-dihydro-3H-pyrazolo[3,4-c]isoquinolin-3-yl)pyrrolidin-1-yl)acetonitrile]	> 6.00
CCn1c(=O)c2cc(C)cc(C(C)Nc3ccc(Cl)nc3-c3ncn(C)n3)c2c2cnn(C3CCN(CCO)C3)c21 (centres unmarked) [Compound 145, 9-(1-((6-Chloro-2-(1-methyl-1H-1,2,4-triazol-3-yl)pyridin-3-yl)amino)ethyl)-4-ethyl-3-(1-(2-hydroxyethyl)pyrrolidin-3-yl)-7-methyl-3,4-dihydro-5H-pyrazolo[3,4-c]isoquinolin-5-one]	> 6.00
CCn1c(=O)c2cc(C)cc(C(C)Nc3ccc(Cl)nc3-c3ncn(C)n3)c2c2cnn(C3CCN(CC(C)(C)O)C3)c21 (centres unmarked) [Compound 146, 9-(1-((6-chloro-2-(1-methyl-1H-1,2,4-triazol-3-yl)pyridin-3-yl)amino)ethyl)-4-ethyl-3-(1-(2-hydroxy-2-methylpropyl)pyrrolidin-3-yl)-7-methyl-3,4-dihydro-5H-pyrazolo[3,4-c]isoquinolin-5-one]	> 6.00
CCn1c(=O)c2cc(C)cc(C(C)Nc3ccc(Cl)nc3-c3ncn(C)n3)c2c2cnn(C3CCN(C(C)C)C3)c21 (centres unmarked) [Compound 147, 9-(1-((6-chloro-2-(1-methyl-1H-1,2,4-triazol-3-yl)pyridin-3-yl)amino)ethyl)-4-ethyl-3-(1-isopropylpyrrolidin-3-yl)-7-methyl-3,4-dihydro-5H-pyrazolo[3,4-c]isoquinolin-5-one]	> 6.00
CCn1c(=O)c2cc(C)cc(C(C)Nc3ccc(Cl)nc3-c3ncn(C)n3)c2c2cnn(C3CCN(S(C)(=O)=O)C3)c21 (centres unmarked) [Compound 148, 9-(1-((6-Chloro-2-(1-methyl-1H-1,2,4-triazol-3-yl)pyridin-3-yl)amino)ethyl)-4-ethyl-7-methyl-3-(1-(methylsulfonyl)pyrrolidin-3-yl)-3,4-dihydro-5H-pyrazolo[3,4-c]isoquinolin-5-one]	> 6.00
CCn1c(=O)c2cc(C)cc(C(C)Nc3ccc(Cl)nc3-c3ncn(C)n3)c2c2cnn(C3CCN(C(C)=O)C3)c21 (centres unmarked) [Compound 149, 3-(1-acetylpyrrolidin-3-yl)-9-(1-((6-chloro-2-(1-methyl-1H-1,2,4-triazol-3-yl)pyridin-3-yl)amino)ethyl)-4-ethyl-7-methyl-3,4-dihydro-5H-pyrazolo[3,4-c]isoquinolin-5-one]	> 6.00
CCn1c(=O)c2cc(C)cc(C(C)Nc3ccc(Cl)nc3-c3ncn(C)n3)c2c2cnn(C3CCN(C(=O)OC)C3)c21 (centres unmarked) [Compound 150, methyl 3-(9-(1-((6-chloro-2-(1-methyl-1H-1,2,4-triazol-3-yl)pyridin-3-yl)amino)ethyl)-4-ethyl-7-methyl-5-oxo-4,5-dihydro-3H-pyrazolo[3,4-c]isoquinolin-3-yl)pyrrolidine-1-carboxylate]	> 6.00
Cc1cc(C(C)Nc2ccc(Cl)nc2-c2ccncc2F)c2c(c1)c(=O)n(C)c1c2cnn1C1CCN(C(=O)N(C)C)C1 (centres unmarked) [Compound 151, 3-(9-(1-((6-chloro-3′-fluoro-[2,4′-bipyridin]-3-yl)amino)ethyl)-4,7-dimethyl-5-oxo-4,5-dihydro-3H-pyrazolo[3,4-c]isoquinolin-3-yl)-N,N-dimethylpyrrolidine-1-carboxamide]	> 6.00
[2H]C([2H])([2H])n1c(=O)c2cc(C)cc(C(C)Nc3ccc(Cl)nc3-c3cnn(C)c3)c2c2cnn(C3CCN(CCC#N)C3)c21 (centres unmarked) [Compound 152, 3-(3-(9-(1-((6-Chloro-2-(1-methyl-1H-pyrazol-4-yl)pyridin-3-yl)amino)ethyl)-7-methyl-4-(methyl-d3)-5-oxo-4,5-dihydro-3H-pyrazolo[3,4-c]isoquinolin-3-yl)pyrrolidin-1-yl)propanenitrile]	> 6.00
[2H]C([2H])([2H])n1c(=O)c2cc(C)cc(C(C)Nc3ccc(Cl)nc3-c3nnn(C)n3)c2c2cnn(C3CCN(CCC#N)C3)c21 (centres unmarked) [Compound 153, 3-(3-(9-(1-((6-chloro-2-(2-methyl-2H-tetrazol-5-yl)pyridin-3-yl)amino)ethyl)-7-methyl-4-(methyl-d3)-5-oxo-4,5-dihydro-3H-pyrazolo[3,4-c]isoquinolin-3-yl)pyrrolidin-1-yl)propanenitrile]	> 6.00
[2H]C([2H])([2H])n1c(=O)c2cc(C)cc(C(C)Nc3ccc(Cl)nc3-c3cnn(C)c3)c2c2cnn(C3CCN(C(=O)CO)C3)c21 (centres unmarked) [Compound 154, 9-(1-((6-Chloro-2-(1-methyl-1H-pyrazol-4-yl)pyridin-3-yl)amino)ethyl)-3-(1-(2-hydroxyacetyl)pyrrolidin-3-yl)-7-methyl-4-(methyl-d3)-3,4-dihydro-5H-pyrazolo[3,4-c]isoquinolin-5-one]	> 6.00
[2H]C([2H])([2H])n1c(=O)c2cc(C)cc(C(C)Nc3ccc(Cl)nc3-c3cnn(C)c3)c2c2cnn(C3CCN(C(=O)CN(C)C)C3)c21 (centres unmarked) [Compound 155, 9-(1-((6-chloro-2-(1-methyl-1H-pyrazol-4-yl)pyridin-3-yl)amino)ethyl)-3-(1-(dimethylglycyl)pyrrolidin-3-yl)-7-methyl-4-(methyl-d3)-3,4-dihydro-5H-pyrazolo[3,4-c]isoquinolin-5-one]	> 6.00
[2H]C([2H])([2H])n1c(=O)c2cc(C)cc(C(C)Nc3ccc(Cl)nc3-c3cnn(C)c3)c2c2cnn(C3CCN(C(=O)c4ccnn4C)C3)c21 (centres unmarked) [Compound 156, 9-(1-((6-chloro-2-(1-methyl-1H-pyrazol-4-yl)pyridin-3-yl)amino)ethyl)-7-methyl-4-(methyl-d3)-3-(1-(1-methyl-1H-pyrazole-5-carbonyl)pyrrolidin-3-yl)-3,4-dihydro-5H-pyrazolo[3,4-c]isoquinolin-5-one]	> 6.00

The remaining lines, values ahead:

pIC50	SMILES
> 6.00	Cc1cc(C(C)Nc2ccc(Cl)nc2-c2cnn(C)c2)c2c(c1)c(=O)n(C)c1c(C3CCN(C)CC3)ncn21 (centres unmarked) [Compound 134, 9-(1-((6-Chloro-2-(1-methyl-1H-pyrazol-4-yl)pyridin-3-yl)amino)ethyl)-4,7-dimethyl-3-(1-methylpiperidin-4-yl) imidazo[1,5-a]quinazolin-5(4H)-one]
> 6.00	Cc1cc(C(C)Nc2ccc(Cl)nc2-c2cnn(C)c2)c2c(c1)c(=O)n(C)c1c2cnn1C1CCN(C)C1 (centres unmarked) [Compound 135, 9-(1-((6-Chloro-2-(1-methyl-1H-pyrazol-4-yl)pyridin-3-yl)amino)ethyl)-4,7-dimethyl-3-(1-methylpyrrolidin-3-yl)-3,4-dihydro-5H-pyrazolo[3,4-c]isoquinolin-5-one]
> 6.00	Cc1cc(C(C)Nc2ccc(Cl)nc2-c2ncn(C)n2)c2c(c1)c(=O)n(C)c1c2cnn1C1CCN(C)C1 (centres unmarked) [Compound 136, 9-(1-((6-chloro-2-(1-methyl-1H-1,2,4-triazol-3-yl)pyridin-3-yl)amino)ethyl)-4,7-dimethyl-3-(1-methylpyrrolidin-3-yl)-3,4-dihydro-5H-pyrazolo[3,4-c]isoquinolin-5-one]
> 6.00	CCN1CCC(n2ncc3c4c(C(C)Nc5ccc(Cl)nc5-c5ncn(C)n5)cc(C)cc4c(=O)n(C)c32)C1 (centres unmarked) [Compound 137, 9-(1-((6-chloro-2-(1-methyl-1H-1,2,4-triazol-3-yl)pyridin-3-yl)amino)ethyl)-3-(1-ethylpyrrolidin-3-yl)-4,7-dimethyl-3,4-dihydro-5H-pyrazolo[3,4-c]isoquinolin-5-one]
> 6.00	Cc1cc(C(C)Nc2ccc(Cl)nc2-c2ncn(C)n2)c2c(c1)c(=O)n(C)c1c2cnn1C1CCN(CCO)C1 (centres unmarked) [Compound 138, 9-(1-((6-chloro-2-(1-methyl-1H-1,2,4-triazol-3-yl)pyridin-3-yl)amino)ethyl)-3-(1-(2-hydroxyethyl)pyrrolidin-3-yl)-4,7-dimethyl-3,4-dihydro-5H-pyrazolo[3,4-c]isoquinolin-5-one]
> 6.00	[2H]C([2H])([2H])n1c(=O)c2cc(C)cc(C(C)Nc3ccc(Cl)nc3-c3nnn(C)n3)c2c2cnn(C3CCN(C)C3)c21 (centres unmarked) [Compound 139, 9-(1-((6-chloro-2-(2-methyl-2H-tetrazol-5-yl)pyridin-3-yl)amino)ethyl)-7-methyl-4-(methyl-d3)-3-(1-methylpyrrolidin-3-yl)-3,4-dihydro-5H-pyrazolo[3,4-c]isoquinolin-5-one]
> 6.00	[2H]C([2H])([2H])n1c(=O)c2cc(C)cc(C(C)Nc3ccc(Cl)nc3-c3cnn(C)c3)c2c2cnn(C3CCN(CCO)C3)c21 (centres unmarked) [Compound 140, 9-(1-((6-chloro-2-(1-methyl-1H-pyrazol-4-yl)pyridin-3-yl)amino)ethyl)-3-(1-(2-hydroxyethyl)pyrrolidin-3-yl)-7-methyl-4-(methyl-d3)-3,4-dihydro-5H-pyrazolo[3,4-c]isoquinolin-5-one]
> 6.00	Cc1cc(C(C)Nc2ccc(Cl)nc2-c2ccncc2F)c2c(c1)c(=O)n(C)c1c2cnn1C1CCN(C(C)C)C1 (centres unmarked) [Compound 141, 9-(1-((6-chloro-3′-fluoro-[2,4′-bipyridin]-3-yl)amino)ethyl)-3-(1-isopropylpyrrolidin-3-yl)-4,7-dimethyl-3,4-dihydro-5H-pyrazolo[3,4-c]isoquinolin-5-one]
